The source of these data is patent US3940482A, “Solubilization of the zinc salt of 1-hydroxy-2-pyridinethione” (priority 1973, dated 1976).

A short description of data set [1]: Solubilization of zinc pyridinethione in anionic shampoo base (visual observations). Format: physicochemical.
Data set [2] can be described thus: Effect of chelating/sequestering agent on biocidal activity of zinc pyridinethione. The settings on record: aliphatic polyamine, up to two-fold excess.
Data set [3] is described as follows: Solubilization of zinc pyridinethione in amphoteric shampoo base (visual observations).
Data set [4] is described as follows: Solubilization of zinc pyridinethione in water by DETA, DGA, PEI-1000 (visual observations). It is filed as physicochemical. As for the experimental part: H2 O. This 48.5 g. slurry is stirred for 1 minute. […] Also, to 0.75 g. […] H2 O. The 45.50 g. slurry is stirred for 1 minute.
**A.E. means active ingredients.

For data set [5] the following is noted: less than one part EDTA per part pyridinethione salt shows this effect; cited from earlier work.

As to `NCCNCCN` [DETA, diethylene triamine], the “Visual observation at pH 9.2” value in data set [1] (anionic shampoo, pH decreased with HCl to 9.2) is “slightly cloudy”. Further, in data set [2], the “effect on antimicrobial activity of zinc pyridinethione” value is “does not reduce the antimicrobial activity”. Also, in data set [3] (pH adjustment with HCl, smoky color at this pH), the “pH down to which shampoo remains clear” value is given as approximately 9.3. For the same compound, the “pH at which solution starts clouding up” value in data set [4] (pH adjusted downward with HCl) is listed as approximately 9.2. The “precipitation at pH 8.8” value in data set [4] (pH adjusted downward with HCl, pH 8.8) is listed as approximately 50%.
Regarding `NCCOCCO` [DGA, diglycolamine], the Visual - unadjusted entry in data set [1] is given as “Cloudy shampoo”. Besides, the pH - unadjusted in data set [1] (anionic shampoo, 1.5% zinc pyridinethione, 3.0% solubilizer) came out at 9.0. In data set [1] (anionic shampoo, unadjusted pH), the “zinc pyridinethione soluble (visual, unadjusted pH)” value is listed as less than 10%. In data set [3] (1.5% zinc pyridinethione, 3.0% solubilizer), this compound gave a pH - unadjusted of 9.6. In addition, in data set [4], the “Solubility of zinc pyridinethione on stirring at room temperature for 3 minutes” value is “Less than 10%”, the “Visual observation: hot plate heating until 110°F.” value is listed as “No greater solubility. Zinc pyridinethione quickly settles” and the “effectiveness as solubilizing agent for heavy metal salts of pyridinethione” value is “ineffective”. Moreover, in data set [4] (1.5% zinc pyridinethione, 3.0% solubilizer in water), the “pH of solution unadjusted” value was determined as 11.2.
For `O=C(O)CN(CCN(CC(=O)O)CC(=O)O)CC(=O)O` [ethylenediamine tetraacetic acid], the “effect on biocidal activity of zinc pyridinethione” value in data set [5] is listed as “very deleterious effect”.
